Laboratory results reported in patent US9302999B2, “Substituted triazoles as herbicides” (E. I. DU PONT DE NEMOURS AND COMPANY, priority 2012, dated 2016).

Assays:
Type in all cases: in vivo
[1] = system: deadnettle (henbit deadnettle, Lamium amplexicaule); experiment: Test C postemergence: deadnettle
Outline: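 Visual ratings of 0 (no effect) to 100 (complete control) were made against controls 13-15 days after a postemergence spray, with plants kept in a greenhouse. Plants were 2-18 cm tall (1- to 4-leaf stage) in Redi-Earth peat/vermiculite medium at treatment.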

[2] = system: windgrass (Apera spica-venti); experiment: Test C postemergence: windgrass
Description: (§1) At the same time, plants selected from these crop and weed species and also barley (winter barley, Hordeum vulgare), canarygrass (Phalaris minor), chickweed (common chickweed, Stellaria media) windgrass (Apera spica-venti) and deadnettle (henbit deadnettle, Lamium amplexicaule) were planted in pots containing Redi-Earth® planting medium (Scotts Company, 14111 Scottslawn Road, Marysville, Ohio 43041) comprising spaghnum peat moss, vermiculite, wetting agent and starter nutrients and treated with postemergence applications of test chemicals formulated in the same manner. Plants ranged in height from 2 to 18 cm (1- to 4-leaf stage) for postemergence treatments.
(§2) Treated plants and controls were maintained in a greenhouse for 13 to 15 days, after which time all species were compared to controls and visually evaluated. Plant response ratings, summarized in Table C, are based on a scale of 0 to 100 where 0 is no effect and 100 is complete control. A dash (-) response means no test result.

[3] = system: nightshade (eastern black nightshade, Solanum ptycanthum); experiment: Test C pre-/postemergence: nightshade; settings: Preemergence
Description: (§3) Seeds of plant species selected from blackgrass (Alopecurus myosuroides), bromegrass, downy (downy bromegrass, Bromus tectorum), foxtail, green (green foxtail, Setaria viridis), ryegrass, Italian (Italian ryegrass, Lolium multiflorum), winter wheat (Triticum aestivum), wild oat (Avena fatua), galium (catchweed bedstraw, Galium aparine), bermudagrass (Cynodon dactylon), surinam grass (Brachiaria decumbens), cocklebur (common cocklebur, Xanthium strumarium), corn (Zea mays), large crabgrass (Digitaria sanguinalis), woolly cupgrass (Eriochloa villosa), foxtail, giant (giant foxtail, Setaria faberii), goosegrass (Eleusine indica), johnsongrass (Sorghum halepense), kochia (Kochia scoparia), lambsquarters (Chenopodium album), morningglory (Ipomoea coccinea), nightshade (eastern black nightshade, Solanum ptycanthum), nutsedge, yellow (yellow nutsedge, Cyperus esculentus), pigweed (Amaranthus retroflexus), ragweed (common ragweed, Ambrosia elation), soybean (Glycine max), common (oilseed) sunflower (Helianthus annuus), Russian thistle (Salsola kali) and velvetleaf (Abutilon theophrasti) were planted into a blend of loam soil and sand and treated preemergence with test chemicals formulated in a non-phytotoxic solvent mixture which included a surfactant.
as §1, §2

[4] = system: bermudagrass (Cynodon dactylon); experiment: Test C pre-/postemergence: bermudagrass
Description: as §3, §1, §2

[5] = system: canarygrass (Phalaris minor); experiment: Test C postemergence: canarygrass
Description: as §1, §2

[6] = system: foxtail, green (green foxtail, Setaria viridis); experiment: Test C pre-/postemergence: foxtail, green
Description: as §3, §1, §2

[7] = system: woolly cupgrass (Eriochloa villosa); experiment: Test C pre-/postemergence: woolly cupgrass
Outline: (§4)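 Visual injury scored 0–100 (100 = complete control) against untreated controls after 13–15 greenhouse days. Surfactant-containing solvent formulations applied either to soil after sowing (loam/sand) or over 1- to 4-leaf plants, 2–18 cm tall.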

[8] = system: goosegrass (Eleusine indica); experiment: Test C pre-/postemergence: goosegrass
Outline: as §4

[9] = system: bromegrass, downy (downy bromegrass, Bromus tectorum); experiment: Test C pre-/postemergence: bromegrass, downy
Outline: as §4

[10] = system: common (oilseed) sunflower (Helianthus annuus); experiment: Test C pre-/postemergence: sunflower; settings: Preemergence
Description: as §3, §1, §2

[11] = system: surinam grass (Brachiaria decumbens); experiment: Test C pre-/postemergence: surinam grass
Description: as §3, §1, §2

[12] = 31 g ai/ha, scale 0 to 100 (0 no effect, 100 complete control)
[13] = 62 g ai/ha, scale 0 to 100 (0 no effect, 100 complete control)
[14] = 125 g ai/ha, scale 0 to 100, 0 no effect, 100 complete control
[15] = 31 g ai/ha, scale of 0 to 100, 0 is no effect, 100 is complete control
[16] = 62 g ai/ha, scale of 0 to 100, 0 is no effect, 100 is complete control
[17] = 250 g ai/ha, scale 0 to 100, 0 no effect, 100 complete control
[18] = Postemergence, 31 g ai/ha, scale 0 to 100 (0 no effect, 100 complete control)
[19] = Postemergence, 62 g ai/ha, scale 0 to 100 (0 no effect, 100 complete control)
[20] = Postemergence, 125 g ai/ha, scale 0 to 100, 0 no effect, 100 complete control
[21] = Postemergence, 250 g ai/ha, scale 0 to 100
[22] = Preemergence, 31 g ai/ha, scale of 0 to 100, 0 is no effect, 100 is complete control
[23] = Preemergence, 62 g ai/ha, scale 0 to 100, 0 no effect, 100 complete control
[24] = Preemergence, 125 g ai/ha, scale 0 to 100, 0 no effect, 100 complete control
[25] = Preemergence, 250 g ai/ha, scale 0 to 100, 0 no effect, 100 complete control
[26] = Preemergence, 62 g ai/ha, scale of 0 to 100, 0 is no effect, 100 is complete control

FC(F)(F)COc1nn(-c2ccc(C(F)(F)F)cc2)nc1Cc1ccnc(C(F)(F)F)c1 [Compound 14, 4-[[5-(2,2,2-trifluoroethoxy)-2-[4-(trifluoromethyl)phenyl]-2H-1,2,3-triazol-4-yl]methyl]-2-(trifluoromethyl)pyridine] was tested, and the “Plant response rating, Deadnettle” value [1, 12] was 98, the “Plant response rating, Deadnettle” value [1, 13] was 98 and the “Plant response rating, Deadnettle” value [1, 14] was 100. The “Plant response rating, Deadnettle” value ([1]; 250 g ai/ha, scale 0 to 100) was 100, the “Plant response rating, Windgrass” value [2, 12] was 70 and the “Plant response rating, Windgrass” value [2, 13] was 90. The “Plant response rating, Windgrass” value [2, 14] was 95, the “Plant response rating, Windgrass” value ([2]; 250 g ai/ha, scale 0 to 100) was 95 and the “Plant response rating, Nightshade” value [3, 15] was 55. The “Plant response rating, Nightshade” value [3, 16] was 80, the “Plant response rating, Nightshade” value [3, 14] was 95 and the “Plant response rating, Nightshade” value [3, 17] was 98. The “Plant response rating, Bermudagrass” value [4, 18] was 0, the “Plant response rating, Bermudagrass” value [4, 19] was 15 and the “Plant response rating, Bermudagrass” value [4, 20] was 55. The “Plant response rating, Bermudagrass” value [4, 21] was 65, the “Plant response rating, Bermudagrass” value [4, 22] was 98 and the “Plant response rating, Bermudagrass” value [4, 23] was 100. The “Plant response rating, Bermudagrass” value [4, 24] was 100, the “Plant response rating, Bermudagrass” value [4, 25] was 100 and the “Plant response rating, Canarygrass” value [5, 12] was 55. The “Plant response rating, Canarygrass” value [5, 13] was 80, the “Plant response rating, Canarygrass” value [5, 14] was 85 and the “Plant response rating, Canarygrass” value ([5]; 250 g ai/ha, scale 0 to 100) was 85. For the same compound, the “Plant response rating, Foxtail, Green” value [6, 18] was 70, the “Plant response rating, Foxtail, Green” value [6, 20] was 90 and the “Plant response rating, Foxtail, Green” value [6, 21] was 90. For the same compound, the “Plant response rating, Foxtail, Green” value [6, 22] was 80, the “Plant response rating, Foxtail, Green” value [6, 26] was 100 and the “Plant response rating, Foxtail, Green” value [6, 24] was 100. The “Plant response rating, Foxtail, Green” value [6, 25] was 100, the “Plant response rating, Cupgrass, Woolly” value [7, 18] was 5 and the “Plant response rating, Cupgrass, Woolly” value [7, 19] was 5. The “Plant response rating, Cupgrass, Woolly” value [7, 20] was 35, the “Plant response rating, Cupgrass, Woolly” value [7, 21] was 65 and the “Plant response rating, Cupgrass, Woolly” value [7, 22] was 5. The “Plant response rating, Cupgrass, Woolly” value [7, 26] was 75, the “Plant response rating, Cupgrass, Woolly” value [7, 24] was 75 and the “Plant response rating, Cupgrass, Woolly” value [7, 25] was 80. The “Plant response rating, Goosegrass” value [8, 18] was 5, the “Plant response rating, Goosegrass” value [8, 19] was 5 and the “Plant response rating, Goosegrass” value [8, 20] was 60. For the same compound, the “Plant response rating, Goosegrass” value [8, 21] was 75, the “Plant response rating, Goosegrass” value [8, 22] was 98 and the “Plant response rating, Goosegrass” value [8, 26] was 100. The “Plant response rating, Goosegrass” value [8, 24] was 100, the “Plant response rating, Goosegrass” value [8, 25] was 100 and the “Plant response rating, Bromegrass, Downy” value [9, 18] was 30. For the same compound, the “Plant response rating, Bromegrass, Downy” value [9, 19] was 40, the “Plant response rating, Bromegrass, Downy” value [9, 20] was 40 and the “Plant response rating, Bromegrass, Downy” value [9, 21] was 45. For the same compound, the “Plant response rating, Bromegrass, Downy” value [9, 22] was 30, the “Plant response rating, Bromegrass, Downy” value [9, 23] was 35 and the “Plant response rating, Bromegrass, Downy” value [9, 24] was 60. For the same compound, the “Plant response rating, Bromegrass, Downy” value [9, 25] was 98, the “Plant response rating, Sunflower” value [10, 15] was 0 and the “Plant response rating, Sunflower” value [10, 16] was 0. The “Plant response rating, Sunflower” value [10, 14] was 0, the “Plant response rating, Sunflower” value [10, 17] was 15 and the “Plant response rating, Surinam Grass” value [11, 18] was 5. For the same compound, the “Plant response rating, Surinam Grass” value [11, 19] was 5, the “Plant response rating, Surinam Grass” value [11, 20] was 30 and the “Plant response rating, Surinam Grass” value [11, 21] was 55. The “Plant response rating, Surinam Grass” value [11, 22] was 20, the “Plant response rating, Surinam Grass” value [11, 26] was 45 and the “Plant response rating, Surinam Grass” value [11, 24] was 60. The “Plant response rating, Surinam Grass” value [11, 25] was 85.

Cc1nn(-c2ccc(F)cc2F)nc1Oc1ccnc(C(F)(F)F)c1 [Compound 146] was tested, and the “Plant response rating, Nightshade” value [3, 16] was 35, the “Plant response rating, Nightshade” value [3, 14] was 90 and the “Plant response rating, Nightshade” value [3, 17] was 98. For the same compound, the “Plant response rating, Bermudagrass” value [4, 22] was 98, the “Plant response rating, Bermudagrass” value [4, 26] was 98 and the “Plant response rating, Bermudagrass” value [4, 24] was 98. For the same compound, the “Plant response rating, Bermudagrass” value [4, 25] was 98, the “Plant response rating, Foxtail, Green” value [6, 22] was 90 and the “Plant response rating, Foxtail, Green” value [6, 26] was 90. The “Plant response rating, Foxtail, Green” value [6, 24] was 90, the “Plant response rating, Foxtail, Green” value [6, 25] was 90 and the “Plant response rating, Cupgrass, Woolly” value [7, 22] was 40. The “Plant response rating, Cupgrass, Woolly” value [7, 26] was 45, the “Plant response rating, Cupgrass, Woolly” value [7, 24] was 90 and the “Plant response rating, Cupgrass, Woolly” value [7, 25] was 100. For the same compound, the “Plant response rating, Goosegrass” value [8, 22] was 70, the “Plant response rating, Goosegrass” value [8, 26] was 85 and the “Plant response rating, Goosegrass” value [8, 24] was 100. The “Plant response rating, Goosegrass” value [8, 25] was 100, the “Plant response rating, Bromegrass, Downy” value [9, 22] was 0 and the “Plant response rating, Bromegrass, Downy” value [9, 26] was 0. For the same compound, the “Plant response rating, Bromegrass, Downy” value [9, 24] was 15, the “Plant response rating, Bromegrass, Downy” value [9, 25] was 80 and the “Plant response rating, Sunflower” value [10, 15] was 10. The “Plant response rating, Sunflower” value [10, 16] was 20, the “Plant response rating, Sunflower” value [10, 14] was 30 and the “Plant response rating, Sunflower” value [10, 17] was 35. The “Plant response rating, Surinam Grass” value [11, 22] was 10, the “Plant response rating, Surinam Grass” value [11, 26] was 20 and the “Plant response rating, Surinam Grass” value [11, 24] was 100. The “Plant response rating, Surinam Grass” value [11, 25] was 100.
